Measured values from ChEMBL document CHEMBL3774358 (Eur J Med Chem, 2016).

How the values were obtained:
[1] = target: Actin nucleation-promoting factor WASL (Rattus norvegicus, UniProt O08816); assay: Inhibition of full-length rat N-WASP-induced Arp2/3 activation by fluorescence assay
[2] = Inhibition of GFP-tagged Xenopus laevis kinesin-5 microtubule gliding velocity by fluorescence assay

Chain of Actin nucleation-promoting factor WASL (O08816 whole entry): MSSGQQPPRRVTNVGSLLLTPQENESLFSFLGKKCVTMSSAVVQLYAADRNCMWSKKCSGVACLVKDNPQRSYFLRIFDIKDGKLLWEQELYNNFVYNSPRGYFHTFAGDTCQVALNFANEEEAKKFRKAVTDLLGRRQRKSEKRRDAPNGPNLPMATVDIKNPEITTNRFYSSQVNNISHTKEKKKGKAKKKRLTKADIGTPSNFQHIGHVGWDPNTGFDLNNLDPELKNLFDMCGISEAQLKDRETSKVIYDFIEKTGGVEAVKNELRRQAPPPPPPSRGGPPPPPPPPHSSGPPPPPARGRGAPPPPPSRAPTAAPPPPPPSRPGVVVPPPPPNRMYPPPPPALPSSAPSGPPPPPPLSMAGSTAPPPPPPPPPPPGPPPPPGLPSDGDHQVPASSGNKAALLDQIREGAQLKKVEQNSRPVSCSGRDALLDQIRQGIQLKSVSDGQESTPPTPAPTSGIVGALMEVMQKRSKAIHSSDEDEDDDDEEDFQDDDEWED

| SMILES | IC50 [1] | IC50 [2] |
| --- | --- | --- |
| CN(C)C[C@@H](O)Cn1c2ccc(Br)cc2c2cc(Br)ccc21 | 3.44 µM |  |
| CCOC(=O)C1=C(C)NC(=S)NC1c1cccc(O)c1 (stereo not drawn) [MONASTROL] |  | 14 µM |
| CN(C)C[C@H](O)Cn1c2ccc(Br)cc2c2cc(Br)ccc21 [WISKOSTATIN] | 4.35 µM |  |
